Literature values, collected in publication PMC9088311, “Cyclic Thiosulfonates for Thiol-Mediated Uptake: Cascade Exchangers, Transporters, Inhibitors” (JACS Au, 2022).

System: lentivirus with D614G SC2 spike protein, A549 cells overexpressing ACE2 and TMPRSS2
Conditions: 50 μM; cited from earlier work

O=S1(=O)C[C@H](O)[C@H](O)CS1 (stereo in doubt) [Compound 3, (4S,5R)-4,5-dihydroxy-1,2-dithiane-1,1-dioxide]
inhibition of luciferase expression, thus SC2 lentivector entry: ≈ 60%
